The CheMixHub viscosity set
“And” between values parts separate entries of the source, which are not always exact repeats. Identical values can stand only once. ± gives the uncertainty stated by the source.

Assays:
[1] = xn = mol fraction of the nth substance listed

c1ccc(Oc2ccccc2)cc1
101 kPa
Settings | viscosity
303.15 K | 3.3 ± 0.14 mPa·s and 3.051 ± 0.065 mPa·s
308.15 K | 2.92 ± 0.12 mPa·s
313.15 K | 2.61 ± 0.11 mPa·s

CCC#N
viscosity [mPa·s]
Settings | 298.15 K | 303.15 K | 308.15 K | 313.15 K | 318.15 K | 323.15 K
101 kPa | 0.42 ± 0.01 | 0.41 ± 0.01 | 0.39 ± 0.01 | 0.37 ± 0.01 | 0.36 ± 0.01 | 0.31 ± 0.01
101.33 kPa | – | 0.3886 ± 0.0035 | – | – | – | –

Cc1ccc(N)cc1
101 kPa
Settings | viscosity [mPa·s]
313.05 K | 2.08 ± 0.02
323.1 K | 1.8 ± 0.036

COCCOCCO + ClC(Cl)=C(Cl)Cl
[1], 298.15 K, 101.33 kPa
Settings | viscosity [mPa·s]
x1 = 0.0072 | 0.852 ± 0.008
x1 = 0.0147 | 0.859 ± 0.009
x1 = 0.0261 | 0.869 ± 0.009
x1 = 0.0417 | 0.884 ± 0.009
x1 = 0.0604 | 0.911 ± 0.009
x1 = 0.0868 | 0.948 ± 0.009
x1 = 0.1038 | 0.975 ± 0.01
x1 = 0.1347 | 1.023 ± 0.01
x1 = 0.1769 | 1.092 ± 0.011
x1 = 0.2025 | 1.139 ± 0.011
x1 = 0.2433 | 1.216 ± 0.012
x1 = 0.2755 | 1.279 ± 0.013
x1 = 0.3041 | 1.34 ± 0.013
x1 = 0.3353 | 1.413 ± 0.014
x1 = 0.374 | 1.504 ± 0.015
x1 = 0.4127 | 1.596 ± 0.016
x1 = 0.4577 | 1.712 ± 0.017
x1 = 0.4877 | 1.796 ± 0.018
x1 = 0.5213 | 1.9 ± 0.019
x1 = 0.5632 | 2.03 ± 0.02
x1 = 0.5988 | 2.14 ± 0.021
x1 = 0.6333 | 2.253 ± 0.022
x1 = 0.6701 | 2.366 ± 0.024
x1 = 0.7061 | 2.48 ± 0.025
x1 = 0.7414 | 2.593 ± 0.026
x1 = 0.7892 | 2.754 ± 0.028
x1 = 0.8427 | 2.948 ± 0.03
x1 = 0.8844 | 3.109 ± 0.032
x1 = 0.9138 | 3.225 ± 0.033
x1 = 0.9381 | 3.323 ± 0.034
x1 = 0.9613 | 3.414 ± 0.035
x1 = 0.978 | 3.478 ± 0.036
x2 = 0.0115 | 3.521 ± 0.036

Cl[Si](Cl)(Cl)Cl + CCOC(C)OCC
viscosity [mPa·s], [1], 101 kPa
Settings | 303.1 K | 313.1 K
x2 = 0.13 | 0.45 ± 0.019 | 0.41 ± 0.017
x2 = 0.2026 | 0.45 ± 0.019 | 0.413 ± 0.017
x2 = 0.3244 | 0.459 ± 0.019 | 0.421 ± 0.018
x2 = 0.4102 | 0.475 ± 0.02 | 0.427 ± 0.018
x2 = 0.4927 | 0.492 ± 0.02 | 0.442 ± 0.018
x2 = 0.5909 | 0.515 ± 0.021 | 0.461 ± 0.019
x2 = 0.6377 | 0.534 ± 0.022 | 0.476 ± 0.02
x2 = 0.6703 | 0.538 ± 0.022 | 0.484 ± 0.02
x2 = 0.71 | 0.552 ± 0.023 | 0.49 ± 0.02
x2 = 0.7457 | 0.541 ± 0.022 | 0.481 ± 0.02
x2 = 0.8082 | 0.52 ± 0.021 | 0.467 ± 0.019
x2 = 0.8385 | 0.492 ± 0.02 | 0.447 ± 0.019
x2 = 0.8813 | 0.456 ± 0.019 | 0.41 ± 0.017
x2 = 0.9655 | 0.416 ± 0.017 | 0.375 ± 0.016

CCCCCCCCCCCC[P+](CC)(CC)CC.N#Cc1ccc[n-]1 + OCC(O)CO
[1], 100 kPa
Settings | viscosity [mPa·s]
293.15 K, x1 = 0.542 | 941 ± 140
293.15 K, x1 = 0.677 | 861 ± 130
298.15 K, x1 = 0.003 | 864 ± 130
298.15 K, x1 = 0.01 | 905 ± 140
298.15 K, x1 = 0.343 | 974 ± 150
298.15 K, x1 = 0.426 | 715 ± 110
303.15 K, x1 = 0.041 | 788 ± 120
303.15 K, x1 = 0.056 | 912 ± 140
303.15 K, x1 = 0.196 | 957 ± 140
303.15 K, x1 = 0.292 | 734 ± 110

Cc1ccccc1C + CC(C)(C)O
[1], 308.15 K, 101 kPa
Settings | viscosity [mPa·s]
x2 = 0.0632 | 0.669 ± 0.014
x2 = 0.1246 | 0.679 ± 0.014
x2 = 0.204 | 0.677 ± 0.014
x2 = 0.2992 | 0.674 ± 0.014
x2 = 0.3725 | 0.731 ± 0.015
x2 = 0.4258 | 0.777 ± 0.016
x2 = 0.4948 | 0.814 ± 0.017
x2 = 0.5942 | 0.908 ± 0.019
x2 = 0.6887 | 1.028 ± 0.021
x2 = 0.7935 | 1.376 ± 0.029
x2 = 0.9065 | 1.962 ± 0.041

Cc1ccccc1C + CCCCO
[1], 308.15 K, 101 kPa
Settings | viscosity [mPa·s]
x2 = 0.0515 | 0.62 ± 0.013
x2 = 0.1019 | 0.659 ± 0.014
x2 = 0.1872 | 0.672 ± 0.014
x2 = 0.3031 | 0.687 ± 0.014
x2 = 0.4127 | 0.752 ± 0.016
x2 = 0.5164 | 0.808 ± 0.017
x2 = 0.6146 | 0.912 ± 0.019
x2 = 0.7079 | 1.021 ± 0.021
x2 = 0.7965 | 1.135 ± 0.024
x2 = 0.8809 | 1.326 ± 0.028
x2 = 0.9612 | 1.564 ± 0.032

Cc1ccccc1C + CC1COC(=O)O1
[1], 303.15 K, 101.3 kPa
Settings | viscosity [mPa·s]
x2 = 0.1383 | 0.8178 ± 0.014
x2 = 0.2653 | 0.9124 ± 0.016
x2 = 0.3824 | 1.011 ± 0.017
x2 = 0.4906 | 1.12 ± 0.019
x2 = 0.5909 | 1.244 ± 0.021
x2 = 0.6842 | 1.384 ± 0.023
x2 = 0.7712 | 1.547 ± 0.025
x2 = 0.8525 | 1.733 ± 0.028
x2 = 0.9286 | 1.937 ± 0.031

Cc1ccccc1C + ClC(Cl)Cl
[1], 298.15 K, 101 kPa
Settings | viscosity [mPa·s]
x2 = 0.262 | 0.739 ± 0.0093
x2 = 0.3694 | 0.725 ± 0.0091
x2 = 0.5222 | 0.6941 ± 0.0087
x2 = 0.5776 | 0.682 ± 0.0086
x2 = 0.6279 | 0.6691 ± 0.0084
x2 = 0.6624 | 0.6592 ± 0.0083
x2 = 0.7082 | 0.6482 ± 0.0081
x2 = 0.7562 | 0.6348 ± 0.008
x2 = 0.7944 | 0.6224 ± 0.0078

Cc1ccccc1C + C1COCCO1
[1], 308.15 K, 101 kPa
Settings | viscosity [mPa·s]
x2 = 0.1 | 0.676 ± 0.009
x2 = 0.2 | 0.699 ± 0.009
x2 = 0.3 | 0.723 ± 0.009
x2 = 0.5 | 0.774 ± 0.01
x2 = 0.6 | 0.806 ± 0.01
x2 = 0.7 | 0.841 ± 0.011
x2 = 0.8 | 0.879 ± 0.011
x2 = 0.9 | 0.922 ± 0.012

Cc1ccccc1C + COCCO
viscosity [mPa·s], [1], 101 kPa
Settings | 298.15 K | 308.15 K
x2 = 0.0517 | 0.769 ± 0.013 | 0.666 ± 0.012
x2 = 0.1491 | 0.795 ± 0.014 | 0.686 ± 0.012
x2 = 0.2491 | 0.83 ± 0.014 | 0.714 ± 0.013
x2 = 0.3509 | 0.877 ± 0.015 | 0.749 ± 0.013
x2 = 0.4485 | 0.934 ± 0.016 | 0.79 ± 0.014
x2 = 0.4919 | 0.963 ± 0.016 | 0.811 ± 0.014
x2 = 0.5537 | 1.009 ± 0.017 | 0.845 ± 0.014
x2 = 0.6432 | 1.088 ± 0.018 | 0.901 ± 0.015
x2 = 0.7525 | 1.206 ± 0.02 | 0.983 ± 0.017
x2 = 0.8492 | 1.334 ± 0.022 | 1.07 ± 0.018
x2 = 0.9547 | 1.506 ± 0.024 | 1.185 ± 0.02
